Source: paper PMC9611449, “Hydroxy-3-Phenylcoumarins as Multitarget Compounds for Skin Aging Diseases: Synthesis, Molecular Docking and Tyrosinase, Elastase, Collagenase and Hyaluronidase Inhibition, and Sun Protection Factor” (Molecules, 2022)
Values joined by “and” are separate entries in the source; they are usually repeats but may differ in a detail not shown here. Equal entries are not always repeated. “Also recorded” adds a separate entry of the source. Where two headings read alike, the source gives them in different places.

Assays:
tyrosinase = conditions: cited from earlier work
mushroom tyrosinase = assay: Tyrosinase inhibition assay (L-DOPA substrate); format: biochemical; conditions: for Enzyme inhibition Tyrosinase: 50 μM; for IC50: mean ± SD of three independent experiments
Method: (§1) Since the compounds were dissolved in DMSO, in the assays carried out without compounds, DMSO was added to the reaction mixture as blank control. […] Data from activity experiments were recorded using an Ultrospec 2100 spectrophotometer (Biochrom Ltd., Cambridge, UK).
The inhibition of tyrosinase was monitored by using DOPA as substrate. The reaction solution contained phosphate buffer (25 mM, pH 6.8) and mushroom tyrosinase (100 U/mL), with or without test samples.

[1] = target: porcine pancreatic elastase (Sus scrofa, UniProt P00772); assay: Elastase inhibition assay (SANA substrate); format: biochemical; conditions: for inhibition at 50 µM: read-out: Enzyme inhibition Elastase; for IC50: mean ± SD of three independent experiments; for inhibition at 50 µM / Enzyme inhibition Elastase: 50 μM
Sequence of porcine pancreatic elastase (P00772 27-266): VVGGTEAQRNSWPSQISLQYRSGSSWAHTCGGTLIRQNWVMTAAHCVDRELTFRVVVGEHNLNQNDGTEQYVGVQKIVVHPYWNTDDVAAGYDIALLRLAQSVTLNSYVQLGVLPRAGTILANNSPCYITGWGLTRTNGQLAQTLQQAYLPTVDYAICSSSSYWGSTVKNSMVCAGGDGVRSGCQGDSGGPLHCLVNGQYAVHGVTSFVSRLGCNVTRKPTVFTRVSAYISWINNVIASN
Method: as §1
The inhibition of elastase was determined by measuring the production of p-nitroaniline during the reaction of the enzyme with the N-succ-(Ala)3-nitroanilide (SANA) substrate. The assay was carried out in Tris-HCl buffer (0.1 M, pH 8.0) containing porcine pancreatic elastase (3.3 µg/mL). The reaction mixture was incubated in the presence or in the absence of the test compounds for 20 minutes and, once the substrate (1.6 mM) was added, the enzyme activity was monitored at 410 nm.

[2] = test system: Collagenase from Clostridium histolyticum; assay: Collagenase inhibition assay (FALGPA substrate); format: biochemical; conditions: for Enzyme inhibition Collagenase: 100 μM; for IC50: mean ± SD of three independent experiments
Method: as §1, with “Results from all the inhibition tests described below were reported as a percentage of the blank control. Since” for “Since”
Collagenase from Clostridium histolyticum (1 U/mL) was prepared in 0.05 M Tricine buffer (pH 7.5), with 0.4 M NaCl and 0.01 M CaCl2, and incubated with different concentrations of test samples for 15 minutes. After adding the N-(3-[2-Furyl]-acryloyl)-Leu-Gly-Pro-Ala (FALGPA) substrate, prepared in the same buffer solution reaching a final concentration of 0.8 mM, the absorbance was registered at 340 nm. Epigallocatechin gallate was used as a positive control.

[3] = In vitro determination of the sun protection factor (UV absorbance, Mansur equation); format: physicochemical; conditions: compounds 0.1 mg/mL, absorbance 290–320 nm
Method: The sun protection factor of coumarins’ derivatives was measured by the UV absorbance method, as previously reported. The absorbances of the compounds (0.1 mg/mL) were registered in the range of 290–320 nm, with 5 nm increments, and three measurements were performed at each point. The SPF was determined by using the Mansur Equation [23]: SPF=CF × Σ290320 × EE(λ) × I(λ) × Abs(λ) where CF = correction factor (10); EE (λ) = erythemogenic effect of radiation with wavelength λ; I(λ) = solar intensity spectrum; Abs(λ) = spectrophotometric absorbance values at wavelength λ. The values of EE (λ) × I(λ) are constant as determined by Sayre et al. (Table 5).

[4] = test system: Human skin keratinocyte cell line (HaCaT); assay: HaCaT cell viability (MTT assay); format: cell-based; conditions: 10–200 μM, 24 h
Method: Human skin keratinocyte cell line (HaCaT; CLS–Cell Lines Service, Eppelheim, Germany) was cultured in Dulbecco’s Modified Eagle’s Medium (DMEM) with 10% fetal bovine serum (FBS; Gibco, NY, USA) and 1% penicillin/streptomycin at 37 °C in a humidified atmosphere with 5% CO2. Cell viability was determined by the MTT (3-(4,5-dimethylthiazol-2-yl)-2,5-diphenyltetrazolium bromide) colorimetric assay, as previously reported. Briefly, HaCaT cells were seeded in 96-well plates and incubated with compounds at different concentrations (0–200 µM). After 24 h, cells were labelled with MTT solution for 3 h at 37 °C. DMSO was added to the formed violet formazan precipitates and the absorbance of each well was measured at 560 nm.

[5] = already described by our research group

Structure (SMILES) | IC50 (tyrosinase) | IC50 (tyrosinase; [5]) | Enzyme inhibition Tyrosinase (mushroom tyrosinase) | IC50 (mushroom tyrosinase) | times more active than the standard inhibitor kojic acid (tyrosinase) (mushroom tyrosinase; ratio of IC50 values) | inhibition at 50 µM [1] | IC50 [1] | Enzyme inhibition Collagenase [2] | IC50 [2] | SPF [3] | Cytotoxicity on HaCaT cell viability [4] | Enzyme inhibition Elastase [1] | times more active than the reference compound epigallocatechin gallate (collagenase) ([2]; ratio of IC50 values)
Nc1cc2ccc(O)cc2oc1=O [3-Amino-7-hydroxycoumarin] | 50 µM |  |  |  |  |  |  |  |  |  |  |  | 
O=c1oc2c(O)cc(O)cc2cc1-c1cc(O)c(O)c(O)c1 [6,8-Dihydroxy-3-(3',4',5'-trihydroxyphenyl)coumarin] |  | 270 µM |  |  |  |  |  |  |  |  |  |  | 
O=c1oc2c(O)cc(Br)cc2cc1-c1ccc(O)cc1 [6-Bromo-8-hydroxy-3-(4'-hydroxyphenyl)coumarin] |  | 215 µM |  |  |  |  |  |  |  |  |  |  | 
O=c1oc2cc(O)cc(O)c2cc1-c1cccc(Br)c1 [Compound 2, 3-(3′-Bromophenyl)-5,7-dihydroxycoumarin] |  |  | 79.2% | 7.03 µM and 7 µM | 2.6 times | 20.3% | > 50 µM | 44.3% | 110 ± 2.8 µM | 4.52 ± 0.22 | non-cytotoxic; also recorded: no toxicity |  | 
O=c1oc2cc(O)cc(O)c2cc1-c1ccccc1Br [Compound 3, 3-(2′-Bromophenyl)-5,7-dihydroxycoumarin] |  |  | 29.3% | > 50 µM |  |  | > 50 µM | 37.1% | 125 ± 10.2 µM | 5.89 ± 0.21 |  | N.I | 
O=c1oc2cc(O)c(O)cc2cc1-c1cccc(Br)c1 [Compound 5, 3-(3′-Bromophenyl)-6,7-dihydroxycoumarin] |  |  | 80.3% | 8.25 µM and 8.3 µM |  | 68.4% | 37.4 µM | 18.2% | > 150 µM |  |  |  | 
O=c1oc2cc(O)c(O)cc2cc1-c1ccccc1Br [Compound 6, 3-(2′-Bromophenyl)-6,7-dihydroxycoumarin] |  |  | 25.8% | > 50 µM |  | 23.8% | > 50 µM | 38.1% | 140 ± 8 µM | 8.08 and 8.08 ± 0.01 |  |  | 
O=c1oc2c(O)c(O)ccc2cc1-c1ccc(Br)cc1 [Compound 7, 3-(4′-Bromophenyl)-7,8-dihydroxycoumarin] |  |  | 9.6% | > 50 µM |  | 15.6% | > 50 µM | N.I. | > 150 µM | 5.88 ± 1.35 |  |  | 
O=c1oc2c(O)c(O)ccc2cc1-c1cccc(Br)c1 [Compound 8, 3-(3′-Bromophenyl)-7,8-dihydroxycoumarin] |  |  | 33.6% | > 50 µM |  | 2.2% | > 50 µM | 39.9% | 122 ± 4.8 µM | 6.94 ± 2.57 |  |  | 
O=c1oc2c(O)c(O)ccc2cc1-c1ccccc1Br [Compound 9, 3-(2′-Bromophenyl)-7,8-dihydroxycoumarin] |  |  | 15.7% | > 50 µM |  |  | > 50 µM | 14.7% | > 150 µM | 4.27 ± 0.91 |  | N.I | 
O=c1oc2cc(O)ccc2cc1-c1cccc(Br)c1 [Compound 10, 3-(3′-Bromophenyl)-7-hydroxycoumarin] |  |  | 56.9% | 42 ± 1.1 µM |  | 38.9% | > 50 µM | 13.2% | > 150 µM | 6.70 ± 1.30 |  |  | 
O=c1oc2cc(O)c(O)cc2cc1-c1cccc(O)c1 [Compound 11, 6,7-Dihydroxy-3-(3′-hydroxyphenyl)coumarin] |  |  | 8.6% | > 50 µM |  | 29.6% | > 50 µM | 35.7% | 143 ± 7.1 µM | 5.44 and 5.44 ± 0.64 |  |  | 
O=c1oc2cc(O)c(O)cc2cc1-c1ccccc1O [Compound 12, 6,7-Dihydroxy-3-(2′-hydroxyphenyl)coumarin] |  |  | 22.7% | > 50 µM |  | 24.5% | > 50 µM | 39.3% | 134 ± 6.6 µM | 5.64 and 5.64 ± 1.43 |  |  | 
O=c1oc2ccc3ccccc3c2cc1-c1ccc(O)cc1 [Compound 13, 3-(4′-Hydroxyphenyl)benzo[f]coumarin] |  |  | 23.2% | > 50 µM |  | 20.7% | > 50 µM | 51.5% | 96.8 ± 5.9 µM | 6.40 ± 1.53 |  |  | 1.25 times
O=c1oc2ccc3ccccc3c2cc1-c1cccc(O)c1 [Compound 14, 3-(3′-Hydroxyphenyl)benzo[f]coumarin] |  |  | 22.3% | > 50 µM |  | 35.3% | > 50 µM | 21.2% | > 150 µM | 5.08 ± 0.46 |  |  | 
O=c1oc2ccc3ccccc3c2cc1-c1ccccc1O [Compound 15, 3-(2′-Hydroxyphenyl)benzo[f]coumarin] |  |  | N.I | > 50 µM |  |  | > 50 µM | N.I. | > 150 µM | 6.89 ± 3.28 |  | N.I | 
O=c1oc2ccc3ccccc3c2cc1-c1ccc(O)c(O)c1 [Compound 16, 3-(3′,4′-Dihydroxyphenyl)benzo[f]coumarin] |  |  | N.I | > 50 µM |  | 22.8% | > 50 µM | 7.9% | > 150 µM | 5.09 ± 1.35 |  |  | 
O=c1oc2ccc3ccccc3c2cc1-c1cc(O)cc(O)c1 [Compound 17, 3-(3′,5′-Dihydroxyphenyl)benzo[f]coumarin] |  |  | 10.0% | > 50 µM |  | 22.4% | > 50 µM | 15.6% | > 150 µM | 4.34 ± 0.66 |  |  | 
O=C(O[C@@H]1Cc2c(O)cc(O)cc2O[C@@H]1c1cc(O)c(O)c(O)c1)c1cc(O)c(O)c(O)c1 [Epigallocatechin gallate, reference compound] |  |  |  |  |  |  |  |  | 121 ± 6.2 µM |  |  |  | 
O=c1ccc2cc(O)c(O)cc2o1 [Esculetin] |  | 43 µM |  |  |  |  |  |  |  |  |  |  | 
